The source of these data is PubChem BioAssay AID1996.

Converted amounts (≈) assume the structure as drawn. Bounds are passed on as bounds.

For this data set the following is noted: buffer; pH 7.4; 200.0 µM.
A word on the solubility (kinetic): it is solubility judged after dilution from a stock solution rather than from solid. For the molecule `CCS(=O)(=O)N1CCN=C1SCc1ccc(F)cc1`, the solubility (kinetic) was 39.9 µg/mL (≈ 132 µM). In the case of `O=S(=O)(NC(=S)NC1CCCCC1)c1ccc(Cl)cc1`, the kinetic solubility was above 49.9 µg/mL.

For `O=C(/C=C/c1ccccc1Cl)OCC(=O)N1CCCC1`, the kinetic solubility was above 44.1 µg/mL. In turn, `COc1ccc(C(=O)NC(=S)N2CCOCC2)cc1[N+](=O)[O-]` gave a solubility (kinetic) above 48.8 µg/mL. As for `O=C(COC(=O)c1ccc(F)cc1F)c1ccc[nH]1`, the figure is above 39.8 µg/mL; as for `O=C(N/N=C/c1ccccc1Br)C1CC1`, above 40.1 µg/mL. Molecule `COc1ccc(NC(=O)Nc2ccc3c(c2)OCO3)c(C)c1` yielded a kinetic solubility of 1.2 µg/mL (≈ 4 µM). As for `Cc1nc(C)c(C(=O)NCCC(c2ccccc2)c2ccccc2)o1`, the figure is 43.8 µg/mL (≈ 131 µM); as for `COc1ccc(S(=O)(=O)Nc2ccc(Nc3ccccc3)cc2)cc1`, 4.7 µg/mL (≈ 13.3 µM); as for `CCC(=O)Nc1ccc(C(=O)COC(=O)Cc2ccsc2)cc1`, 15.9 µg/mL (≈ 48 µM). On to `COc1ccc(-c2cc(-c3ccco3)[nH]c(=O)c2C#N)cc1`, for which the kinetic solubility was 5.3 µg/mL (≈ 18.1 µM).

In turn, `COc1ccc(/C=N/NC(=O)c2cc[n+]([O-])cc2)cc1OC` returned a solubility (kinetic) above 45.2 µg/mL. For the molecule `CN(c1ccccc1)S(=O)(=O)c1ccc(C(=O)NCc2ccc(F)cc2)cc1`, the kinetic solubility was determined as 8.1 µg/mL (≈ 20.3 µM). As for `CCn1c(SCCN2CCOCC2)nc2c1c(=O)n(C)c(=O)n2C`, the figure is above 53 µg/mL; as for `O=C(CSc1nccc(-c2cccs2)n1)Nc1ccccc1`, 2.3 µg/mL (≈ 7.02 µM); as for `CCO.C[C@H]1c2cccc(O)c2C(O)=C2C(=O)[C@]3(O)C(O)=C(C(N)=O)C(=O)[C@@H](N(C)C)[C@@H]3[C@@H](O)[C@@H]21.Cl.O`, above 76.9 µg/mL. As for `COc1ccc(CCNC(=O)C2CC=CCC2C(=O)O)cc1` (stereo not given), the figure is above 45.5 µg/mL; as for `Cc1cc(-c2nc(-c3ccncc3)no2)ccc1[N+](=O)[O-]`, 1.8 µg/mL (≈ 6.38 µM).

In the case of `Cc1ccc(S(=O)(=O)N2CCOCC2)cc1C(=O)NC(C)CCc1ccccc1` (stereo not given), the solubility (kinetic) worked out at 25.1 µg/mL (≈ 60.3 µM). As for `CC(=O)Cc1cc2cc([N+](=O)[O-])ccc2oc1=O`, the figure is above 37.1 µg/mL; as for `O=C(O)c1cccnc1SC1CC(=O)N(c2ccccc2)C1=O` (stereo not given), above 49.3 µg/mL; as for `CCCCNC(=O)Nc1nc2ccc(CC)cc2s1`, 0.7 µg/mL (≈ 2.52 µM). As for `Cc1cc(C)cc(OCC(O)CN2CC(C)OC(C)C2)c1.Cl` (stereo not given), the figure is above 49.5 µg/mL. As for `CCOc1ccc(S(=O)(=O)N(C)C2CCCCC2)cc1`, the figure is 18.1 µg/mL (≈ 60.9 µM); as for `COc1ccc(C(=O)NCCN2CCOCC2)cc1[N+](=O)[O-]`, above 46.4 µg/mL. The molecule `CCCCC(=O)N(Cc1ccc(F)cc1)C1CCS(=O)(=O)C1` (stereo not given) yielded a kinetic solubility of 46.9 µg/mL (≈ 143 µM). The molecule `O=C(CCCc1cccs1)Nc1nccs1` showed a solubility (kinetic) of 26.8 µg/mL (≈ 106 µM).

Molecule `CSc1nc2ccc(NC(=O)COc3ccccc3F)cc2s1` registered a solubility (kinetic) of 2.2 µg/mL (≈ 6.31 µM).

The molecule `Cc1cnc(NC(=O)Cc2cccs2)s1` gave a kinetic solubility above 35.7 µg/mL. As for `O=C(NNC(=O)c1ccco1)c1csc(N2CCOCC2)n1`, the figure is above 48.4 µg/mL; as for `N/C(=N\OC(=O)c1ccc(F)cc1)c1ccc(Br)cc1`, 0.4 µg/mL (≈ 1.19 µM). As for `Cc1cc(C)cc(OCC(=O)Nc2nc(-c3cccnc3)cs2)c1`, the figure is 3.2 µg/mL (≈ 9.43 µM). `C=CCSc1nc(C)cc(C(=O)OCC)c1C#N` gave a solubility (kinetic) of 8.6 µg/mL (≈ 32.8 µM). As for `O=S(=O)(Nc1cccc(F)c1)c1cccc2nsnc12`, the figure is above 46.4 µg/mL.

On to `Cc1cc(C)c(C)c(OCCNCc2ccccc2)c1.O=C(O)C(=O)O`, for which the solubility (kinetic) was above 53.9 µg/mL. The molecule `Cc1ccc(C(=O)NCCCN2CCOCC2)c(Cl)c1` displayed a kinetic solubility above 44.5 µg/mL. `C=CCOc1ccc(CNc2ccc3[nH]c(=O)[nH]c3c2)cc1OC` gave a kinetic solubility of 2.7 µg/mL (≈ 8.3 µM). Consider `CC(C)=C(NC(=O)c1ccccc1)C(=O)Nc1cccc(C)c1`, for which the kinetic solubility stood at 2.8 µg/mL (≈ 9.08 µM). Regarding `CCN(CC)CCCNc1cc(C)nc2cc(-c3cccs3)nn12`, the solubility (kinetic) is above 51.5 µg/mL. On to `CCOC(=O)c1c(C)[nH]c(C)c1C(=O)COC(=O)/C=C/c1ccccc1[N+](=O)[O-]`, for which the solubility (kinetic) stood at 6 µg/mL (≈ 15 µM). `Fc1ccc(CNc2ccccn2)cc1` gave a kinetic solubility of 24.3 µg/mL (≈ 120 µM). As for `O=C(Nc1ccccc1)O/N=C/c1ccc(F)cc1`, the figure is 12.8 µg/mL (≈ 49.6 µM).

In the case of `COc1ccc(NC2(C#N)CCCCC2)cc1`, the kinetic solubility amounted to 12.4 µg/mL (≈ 53.8 µM). As for `Cc1c(-c2ccccc2)[n+](=O)c2c(n1[O-])CCCC2`, the figure is above 38.4 µg/mL.

`O=C(c1cc2ccccc2cc1O)N1CCCC1` registered a solubility (kinetic) above 36.2 µg/mL. As for `CSc1ccc(Cl)c(C(=O)Nc2nccs2)c1`, the figure is 2.8 µg/mL (≈ 9.83 µM). As for `O=C(COC(=O)c1c(Cl)cccc1Cl)NCc1cccs1`, the figure is above 51.6 µg/mL. As for `C=CCn1c(C)cc(C(=O)COc2ccc(N(C)S(=O)(=O)c3ccc(NC(C)=O)cc3)cc2)c1C`, the figure is 9.3 µg/mL (≈ 18.8 µM). `CCC(=O)c1ccc(OCC(=O)NC2(C#N)CCCCC2)cc1`: the kinetic solubility is 45.4 µg/mL (≈ 144 µM). In the case of `C=CCNC(=S)/N=c1/ccccn1CC`, the solubility (kinetic) worked out at 28.7 µg/mL (≈ 130 µM).

The molecule `COCc1c(C(=O)NC2CCCCCC2)oc2ccccc12` registered a kinetic solubility of 10.4 µg/mL (≈ 34.5 µM). Molecule `COCC(=O)Nc1nc(-c2ccc(-c3ccccc3)cc2)cs1` came in with a solubility (kinetic) of 4.4 µg/mL (≈ 13.6 µM).

In the case of `N/C(=N\OC(=O)CCC1CCCC1)c1ccc(Cl)cc1`, the kinetic solubility was found to be 1.2 µg/mL (≈ 4.07 µM). As for `Cn1c(=O)c2ccccc2n(CC(=O)NCCC2=CCCCC2)c1=O`, the figure is 14.6 µg/mL (≈ 42.8 µM); as for `CC(=O)Nc1nc(-c2ccc3c(c2)OCO3)cs1`, 8.5 µg/mL (≈ 32.4 µM); as for `CCOC(=O)c1sc(Nc2ccc(Br)cc2)nc1C`, 1.2 µg/mL (≈ 3.52 µM).

For `Cc1cccc2c(N=O)c(O)[nH]c12`, the solubility (kinetic) was above 26.4 µg/mL.

`Clc1ccccc1C1Nc2cccc3cccc(c23)N1` returned a solubility (kinetic) of 7.5 µg/mL (≈ 26.7 µM). Molecule `Cc1ccc(NC(=O)N2CCCCCC2)cc1` registered a kinetic solubility above 34.8 µg/mL. As for `Cc1ccc(C2N3CCCN23)cc1` (stereo not given), the figure is above 26.1 µg/mL; as for `Cc1cc(CSc2nc(C)cc(=O)[nH]2)c2ncccc2c1`, 8.7 µg/mL (≈ 29.3 µM); as for `Cc1c(OCC(=O)N(C)C)ccc2c(-c3ccccc3)cc(=O)oc12`, 13.6 µg/mL (≈ 40.3 µM).

For `COC(=O)c1ccc(/C=C/c2nc3ccccc3c(=O)[nH]2)cc1`, the kinetic solubility was 3.7 µg/mL (≈ 12.1 µM).

For `Nn1c(Nc2ccc(Cl)cc2)nncc1=O`, the kinetic solubility is above 35.6 µg/mL. `Nc1nc2c(ccc3ccccc32)s1` returned a solubility (kinetic) of 27.4 µg/mL (≈ 137 µM). With `O=C(CC(=O)Nc1nc(C23CC4CC(CC(C4)C2)C3)cs1)NCCO`, the solubility (kinetic) is 50.8 µg/mL (≈ 140 µM). In the case of `O=C(CN1CCCCC1)Nc1ccccc1Cl`, the kinetic solubility worked out at 26.8 µg/mL (≈ 106 µM). Take `CCCN1CCN(CC(=O)Nc2nnc(CC)s2)CC1`: the kinetic solubility is above 44.6 µg/mL. In turn, `CCOC(=O)c1c(/N=C/N(C)C)sc(C)c1C` displayed a kinetic solubility of 37.3 µg/mL (≈ 147 µM). `O=C(NC(=S)Nc1ccc(Cl)c(C(=O)O)c1)c1ccco1` gave a solubility (kinetic) above 48.7 µg/mL. Molecule `CCN(C(=O)Cc1c(C(=O)O)n(CC)c2ccccc12)c1ccccc1C` yielded a solubility (kinetic) of 42.7 µg/mL (≈ 117 µM). `Cc1ccc(C)c(NC(=O)CSc2nccn2Cc2ccco2)c1` showed a kinetic solubility above 51.2 µg/mL. `CN(CC(=O)O)S(=O)(=O)c1ccc2c(c1)NC(=O)CC(=O)N2` showed a kinetic solubility above 49.1 µg/mL.

For `N#C/C(=C(/O)CCl)c1nc(-c2ccccc2)cs1`, the kinetic solubility stood at 41.3 µg/mL (≈ 149 µM). As for `Cc1cccc(C(=O)OCC(=O)Nc2ccc(F)cc2)c1`, the figure is 6.3 µg/mL (≈ 21.9 µM).
